Where “and” joins values, the source holds several entries; their conditions need not be identical. Identical values can stand only once. Like-named read-outs stand apart in the source and are kept apart here.
What was measured:
[1] = tested on: Cloudman S91 mouse melanoma cell line; assay: Melanin content of S91 cells after treatment with test compound; type: cell-based; conditions: for melanogenesis in S91 cells (in words): PKC inhibitors
Description: The Cloudman S91 mouse melanoma cell line was obtained from American Type Culture Collection (ATCC). […] For testing propylene glycol and analogues for induction of melanogenesis, S91 cells were plated at 10^5 cells/35 mm dish in 10% calf serum. […] Cells were cultured for 6 days at 37° C. in 5% CO2 in a humidified incubator. Following this treatment period, cells were examined microscopically and the portion of dedifferentiated and differentiated cells was estimated.
Following this microscopic examination, cells were detached from dishes by trypsin. The time required for detachment by trypsin was recorded as an additional indicator of the phenotypic effects of test compounds. For each treatment, a subsample of cells was counted to determine the effects of treatment compounds on cellular proliferation. The remainder of cells were used for determination of melanin content. […] Absorbance of standards and samples was measured at 475 nm. Melanin was expressed as pg melanin/cell.

[2] = tested on: tyrosinase activity in S91 mouse melanoma cells; assay: Induction of tyrosinase activity in S91 cells
Description: Compounds were examined for their ability to induce tyrosinase activity in S91 mouse melanoma cells. […] Following treatments, cells were trypsinized, counted by Coulter, pelleted by centrifugation at 1000×g, and analyzed for tyrosinase activity using modifications of previously described procedures (Pomerantz, S. H., 1966, J. Biol. Chem. 241:161-168; Jara, et al., 1988, Pigment Cell Res. 1: 332-339.). Briefly, cell pellets were solubilized by sonicating for 5 seconds in 600 ul 50 mM phosphate buffer pH 6.8 containing 0.5% Triton-X100, followed by vortexing, incubation on ice for 30 min, and then revortexing. From this, 200 ul aliquots were combined with 200 ul of reaction mixture containing either 75 uM tyrosine, 75 uM L-Dopa, and 2 uCi L-[3,5-^3H]Tyrosine in 50 mM NaPO4 pH 6.8 (L-Dopa+), or, 75 uM tyrosine, and 2 uCi L-[3,5-^3H]Tyrosine in 50 mM NaPO4 pH 6.8 (L-Dopa−) and incubated 1 hr at 37° C. Reactions were stopped by addition of 400 ul 10% activated charcoal in 0.1N HCl and incubation on ice for 15 min. This mixture was centrifuged at 17,300×g for 5 min, and 400 ul supernatant was then filtered through a 0.22 uM GV Durapore centifugal filter unit (Millipore) by centrifuging at 17,300×g for 5 min. Filtrate was added to 4 ml Fisher Plus scintillation fluid and counted on a Hewlett Packard scintillation counter. Tyrosinase activity was calculated as dpm/hr/ug protein and dpm/hr/10^3 cells. Each sample was analyzed with and without L-Dopa, a necessary cofactor for tyrosinase (Pomerantz, S. H., 1966, J. Biol. Chem. 241:161-168; McLane, et al., 1987, Biochem. Biophys. Res. Commun. 145:719-725). All reported tyrosinase values are exclusive of counts that occurred in buffer blanks and L-dopa negative aliquots. Protein was determined on aliquots of cell lysate, extracellular particulate lysate or media by the Bradford Coomassie Blue method (Bradford, 1967, Anal. Biochem. 72:248-254) using Bio-Rad Protein Assay Kit I.

[3] = tested on: Tyrosinase in normal human epidermal melanocytes (NHEM); assay: Tyrosinase in NHEM (in situ, cellular, extracellular particulate, media); type: cell-based
Description: Tyrosinase was measured in normal human epidermal melanocytes (NHEM) using procedures identical to those described for S91 cells (Example 6), […], 1600×g, or 17,300×g for analysis of tyrosinase activity in the extracellular exported melanosomal particulate fraction, and in the resultant supernatant media fraction. In some cases (Table 11), tyrosinase was also measured by an in situ assay wherein radiolabelled tyrosine was added directly to freshly replaced media of NHEM for a period of 24 hrs following a 5 day treatment period (Abdel-Malek, et al., 1992, J. Cell. Physiol. 150:416-425). […] Both 5 mM 5-NBene-2,2-DM and 25 mM 3,3-M-1,2-BD induced more tyrosinase in each of these assays and fractions than did 1,2-PG. IBMX (3-isobutyl-1-methyl-xanthine) provided as a positive control, induced as much tyrosinase as 5 mM 5-NBene-2,2-DM in the in situ assay, but less in cellular, extracellular particulate and media fractions (Table 11).

[4] = range of concentrations up to a toxic dose
[5] = 300 mM PG-1,2, 25 mM 3,3-M-1,2-BD, 50 mM 1,2-cs-CPD, 5 mM 5-NBene-2,2-DM, 0.5 mM 2,3-Pyd, 0.1 mM IBMX, mean ±SE
[6] = 5 day treatment, concentrations as E130
[7] = pair of replicates, concentrations as E130

1-propanol
melanogenesis in S91 cells (≧2-fold increase = significant) [1, 4]: did not induce significant (≧2-fold increase) melanogenesis

O[C@@H]1CCC[C@H]1O (relative stereo) [1,2-trans-Cyclopentanediol, 1,2-trans-cyclopentanediol]
Concentration Required for ≧2-fold Melanin Induction in S91 Cells [1]: 50000 µM

OC1CCCC(O)C1 (stereo not drawn) [1,3-cyclohexanediol]
melanogenesis in S91 cells (≧2-fold increase = significant) [1, 4]: did not induce significant (≧2-fold increase) melanogenesis

OC1OCCOC1O (stereo not drawn) [1,4-Dioxane-2,3-Diol, 1,4-dioxane-2,3-diol]
Concentration Required for ≧2-fold Melanin Induction in S91 Cells [1]: 500 µM

OCC1CC2CCC1C2 (stereo not drawn) [2-NBaneM, 2-Norbornanemethanol]
induction of tyrosinase in S91 cells compared with 5-NBene-2,2-DM (FIG. 2) [2]: Lesser induction
Tyrosinase Cellular ([3]; Black-Neonatal-NHEM, 1 mM): 10863 dpm/hr/10^3 cells
Tyrosinase Cellular relative to Control ([3]; Black-Neonatal-NHEM, 1 mM): 1.10 X
Tyrosinase In Situ ([3]; Black-Neonatal-NHEM, 1 mM): 12.1 dpm/hr/10^3 cells
Tyrosinase In Situ relative to Control ([3]; Black-Neonatal-NHEM, 1 mM): 0.97 X
Tyrosinase Media relative to Control ([3]; Black-Neonatal-NHEM, 1 mM): 1.68 X
Tyrosinase Media ([3]; Black-Neonatal-NHEM, 1 mM, media from 1 day treatment period): 18.7 dpm/hr/10^3 cells
Tyrosinase Cellular ([3]; Black-Neonatal-NHEM, 5 mM): 17397 dpm/hr/10^3 cells
Tyrosinase Cellular relative to Control ([3]; Black-Neonatal-NHEM, 5 mM): 1.77 X
Tyrosinase In Situ ([3]; Black-Neonatal-NHEM, 5 mM): 12.8 dpm/hr/10^3 cells
Tyrosinase In Situ relative to Control ([3]; Black-Neonatal-NHEM, 5 mM): 1.02 X
Tyrosinase Media relative to Control ([3]; Black-Neonatal-NHEM, 5 mM): 3.36 X
Tyrosinase Media ([3]; Black-Neonatal-NHEM, 5 mM, media from 1 day treatment period): 37.3 dpm/hr/10^3 cells
Tyrosinase Cellular ([3]; White-Adult-NHEM, 1 mM): 15257 dpm/hr/10^3 cells
Tyrosinase Cellular relative to Control ([3]; White-Adult-NHEM, 1 mM): 1.09 X
Tyrosinase In Situ ([3]; White-Adult-NHEM, 1 mM): 7.05 dpm/hr/10^3 cells
Tyrosinase In Situ relative to Control ([3]; White-Adult-NHEM, 1 mM): 1.27 X
Tyrosinase Media relative to Control ([3]; White-Adult-NHEM, 1 mM): 1.11 X
Tyrosinase Media ([3]; White-Adult-NHEM, 1 mM, media from 1 day treatment period): 29.2 dpm/hr/10^3 cells
Tyrosinase Cellular ([3]; White-Adult-NHEM, 5 mM): 16077 dpm/hr/10^3 cells
Tyrosinase Cellular relative to Control ([3]; White-Adult-NHEM, 5 mM): 1.15 X
Tyrosinase In Situ ([3]; White-Adult-NHEM, 5 mM): 6.18 dpm/hr/10^3 cells
Tyrosinase In Situ relative to Control ([3]; White-Adult-NHEM, 5 mM): 1.11 X
Tyrosinase Media relative to Control ([3]; White-Adult-NHEM, 5 mM): 1.33 X
Tyrosinase Media ([3]; White-Adult-NHEM, 5 mM, media from 1 day treatment period): 48.1 dpm/hr/10^3 cells

O=CC[C@H](O)[C@H](O)CO [2-deoxy-D-ribose]
melanogenesis in S91 cells (≧2-fold increase = significant) [1, 4]: did not induce significant (≧2-fold increase) melanogenesis

CC(O)(CO)c1ccccc1 (stereo not drawn) [2-phenyl-1,2-propanediol]
melanogenesis in S91 cells (≧2-fold increase = significant) [1, 4]: did not induce significant (≧2-fold increase) melanogenesis

CC(C)O [2-propanol]
melanogenesis in S91 cells (≧2-fold increase = significant) [1, 4]: did not induce significant (≧2-fold increase) melanogenesis

CCCCCCCCCCCCN1CCCCCC1=O [Azone®]
melanogenesis in S91 cells (≧2-fold increase = significant) [1, 4]: did not induce significant (≧2-fold increase) melanogenesis

CCCCCCCCCCCCC/C=C/[C@@H](O)[C@@H](N)CO [D-sphingosine, reference compound]
effect on melanogenesis induced by propylene glycol in S91 cells [1]: enhanced melanogenesis induced by propylene glycol
melanogenesis in S91 cells (in words) [1]: induced melanogenesis

CC1CNCCN1S(=O)(=O)c1cccc2cnccc12 (stereo not drawn) [H7, 1-[5-isoquinolinyl-sulfonyl]-2-methyl-piperazine, reference compound]
effect on melanogenesis induced by propylene glycol in S91 cells [1]: enhanced melanogenesis induced by propylene glycol
melanogenesis in S91 cells (in words) [1]: induced melanogenesis

CC(C)Cn1c(=O)n(C)c(=O)c2[nH]cnc21 [IBMX, 3-isobutyl-1-methylxanthine, reference compound]
Tyrosinase dpm/hr 10^3 Cells [2, 5]: 765 ± 53 dpm/hr/10^3 Cells
Tyrosinase dpm/hr ug Protein [2, 5]: 2161 ± 41 dpm/hr/ug Protein
Tyrosinase In Situ ([3]; 5 day treatment, 300 mM 1,2-PG, 25 mM 3,3-M-1,2-BD, 5 mM 5-NBene-2,2-DM, 0.1 mM IBMX): 25.3 dpm/hr/10^3 Cells and 26.1 dpm/hr/10^3 Cells
Tyrosinase 200 g Partic [3, 6]: 2189 dpm/hr/10^3 Cells and 1834 dpm/hr/10^3 Cells
Tyrosinase Cellular [3, 6]: 10910 dpm/hr/10^3 Cells and 11737 dpm/hr/10^3 Cells
Tyrosinase 17300 g Partic ([3]; Post 200 X g, 5 day treatment, concentrations as E130): 220 dpm/hr/10^3 Cells and 260 dpm/hr/10^3 Cells
Tyrosinase Media ([3]; Post 17300 X g, 5 day treatment, concentrations as E130): 2698 dpm/hr/10^3 Cells and 2935 dpm/hr/10^3 Cells
Tyrosinase 200 g Partic, relative to controls (in parentheses) [3, 7]: (5.86X)
Tyrosinase 17300 g Partic, relative to controls (in parentheses) [3, 7]: (2.10X)
Tyrosinase Cellular, relative to controls (in parentheses) [3, 7]: (1.11X)
Tyrosinase In Situ, relative to controls (in parentheses) [3, 7]: (1.62X)
Tyrosinase Media, relative to controls (in parentheses) [3, 7]: (1.81X)

CNC[C@H](O)[C@@H](O)[C@H](O)[C@H](O)CO [N-methyl-D-glucamine]
melanogenesis in S91 cells (≧2-fold increase = significant) [1, 4]: did not induce significant (≧2-fold increase) melanogenesis

O=C1O[C@H]([C@@H](O)CO)C(O)=C1O [ascorbic acid]
melanogenesis in S91 cells (≧2-fold increase = significant) [1, 4]: did not induce significant (≧2-fold increase) melanogenesis

O=c1[nH]cc(CO)c(=O)[nH]1 [hydroxymethyl uracil]
melanogenesis in S91 cells (≧2-fold increase = significant) [1, 4]: did not induce significant (≧2-fold increase) melanogenesis

CCCCCCCC/C=C\CCCCCCCC(=O)O [oleic acid]
melanogenesis in S91 cells (≧2-fold increase = significant) [1, 4]: did not induce significant (≧2-fold increase) melanogenesis

OCC(CO)(CO)CO [pentaerylthritol]
Fold Induction of Tyrosinase Relative to Controls ([2]; 1 mM (Table 16)): 1.2X
Fold Induction of Tyrosinase Relative to Controls ([2]; 2.5 mM (Table 16)): 1.9X
Fold Induction of Tyrosinase Relative to Controls ([2]; 5 mM (Table 16)): 1.5X

O=C(O)C(O)C(O)C(=O)O (stereo not drawn) [tartaric acid]
melanogenesis in S91 cells (≧2-fold increase = significant) [1, 4]: did not induce significant (≧2-fold increase) melanogenesis

CCCC[N+](CCCC)(CCCC)CCCC.[Cl-] [tetrabutylammonium chloride]
melanogenesis in S91 cells (≧2-fold increase = significant) [1]: did not induce significant (≧2-fold increase) melanogenesis

OC1CC2CCC1C2 (stereo not drawn) [α-NBane-ol, α-Norborneol]
induction of tyrosinase in S91 cells compared with 5-NBene-2,2-DM (FIG. 2) [2]: Lesser induction

C[C@]12CC[C@@H]3c4ccc(O)cc4CC[C@H]3[C@@H]1CC[C@@H]2O [β-Estradiol, β-estradiol, reference compound]
Concentration Required for ≧2-fold Melanin Induction in S91 Cells [1]: 500 µM

Bisindolylmaleimide [GF109203X, reference compound]
effect on induction of tyrosinase by 5-NBene-2,2-DM in S91 cells (in words) [2]: augmentation of basal and 5-NBene-2,2-DM-induced tyrosinase levels
Tyrosinase Relative to Control ([2]; 0.1 uM GF109203X): 2.6
Tyrosinase dpm/hr/ug Protein ([2]; 0.1 uM GF109203X): 1025 dpm/hr/ug Protein
Tyrosinase Relative to Control ([2]; 1 uM GF109203X): 6.1X
Tyrosinase dpm/hr/ug Protein ([2]; 1 uM GF109203X): 2407 dpm/hr/ug Protein

Catalase [reference compound]
effect on induction of tyrosinase by 5-NBene-2,2-DM in S91 cells (in words) [2]: did not inhibit the action of 5-NBene-2,2-DM
Tyrosinase Relative to Control ([2]; 500 Units Catalase/ml): 1.9X
Tyrosinase dpm/hr/ug Protein ([2]; 500 Units Catalase/ml): 745 dpm/hr/ug Protein
Tyrosinase Relative to Control ([2]; 1000 Units Catalase/ml): 1.7X
Tyrosinase dpm/hr/ug Protein ([2]; 1000 Units Catalase/ml): 691 dpm/hr/ug Protein

methyl-5-norbornene-2,3-dimethanol
Fold Induction of Tyrosinase Relative to Controls ([2]; 0.5 mM (Table 16)): 6.0X
Fold Induction of Tyrosinase Relative to Controls ([2]; 1 mM (Table 16)): 8.1X
Fold Induction of Tyrosinase Relative to Controls ([2]; 2.5 mM (Table 16)): 0.8X

mono- & di-acetate 2,5 & 6,7-norbornanetriol
Fold Induction of Tyrosinase Relative to Controls ([2]; 1 mM (Table 15)): 1.5X
Fold Induction of Tyrosinase Relative to Controls ([2]; 2 mM (Table 15)): 3.0X
